Measured values taken from the supplement of paper PMC11451515.

Test system: P12-Ichikawa
Test: cell viability relative to DMSO control; higher = less cytotoxic
Conditions: 48 h
How it was run: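 Viability, reported as a per-plate percentage of DMSO wells with cell-free wells as background, came from CellTiter-Glo One luminescence. Reading took place after 48 h at 37°C. Before that, NOMO1 or SEM (500 cells/well) or P12-Ichikawa (1000 cells/well) leukemia cells, adapted for at least four passages in each medium, were seeded in 1536-well plates (5 μl) and pin-dosed with library compounds in DMSO, 47 μM to 0.79 nM over 11 threefold points.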

[1] = HPLM + 10% dialyzed FBS, 0.000781 µM
[2] = HPLM + 10% dialyzed FBS, 0.00234 µM
[3] = HPLM + 10% dialyzed FBS, 0.00702 µM
[4] = HPLM + 10% dialyzed FBS, 0.0211 µM
[5] = HPLM + 10% dialyzed FBS, 0.0632 µM
[6] = HPLM + 10% dialyzed FBS, 0.19 µM
[7] = HPLM + 10% dialyzed FBS, 0.569 µM
[8] = HPLM + 10% dialyzed FBS, 1.71 µM
[9] = HPLM + 10% dialyzed FBS, 5.12 µM
[10] = HPLM + 10% dialyzed FBS, 15.4 µM
[11] = HPLM + 10% dialyzed FBS, 46.1 µM
[12] = RPMI 5 mM glucose + 10% FBS, 0.000781 µM
[13] = RPMI 5 mM glucose + 10% FBS, 0.00234 µM
[14] = RPMI 5 mM glucose + 10% FBS, 0.00702 µM
[15] = RPMI 5 mM glucose + 10% FBS, 0.0211 µM
[16] = RPMI 5 mM glucose + 10% FBS, 0.0632 µM
[17] = RPMI 5 mM glucose + 10% FBS, 0.19 µM
[18] = RPMI 5 mM glucose + 10% FBS, 0.569 µM
[19] = RPMI 5 mM glucose + 10% FBS, 1.71 µM
[20] = RPMI 5 mM glucose + 10% FBS, 5.12 µM
[21] = RPMI 5 mM glucose + 10% FBS, 15.4 µM
[22] = RPMI 5 mM glucose + 10% FBS, 46.1 µM
[23] = RPMI 5 mM glucose + 10% dialyzed FBS, 0.000781 µM
[24] = RPMI 5 mM glucose + 10% dialyzed FBS, 0.00234 µM
[25] = RPMI 5 mM glucose + 10% dialyzed FBS, 0.00702 µM
[26] = RPMI 5 mM glucose + 10% dialyzed FBS, 0.0211 µM
[27] = RPMI 5 mM glucose + 10% dialyzed FBS, 0.0632 µM
[28] = RPMI 5 mM glucose + 10% dialyzed FBS, 0.19 µM
[29] = RPMI 5 mM glucose + 10% dialyzed FBS, 0.569 µM
[30] = RPMI 5 mM glucose + 10% dialyzed FBS, 1.71 µM
[31] = RPMI 5 mM glucose + 10% dialyzed FBS, 5.12 µM
[32] = RPMI 5 mM glucose + 10% dialyzed FBS, 15.4 µM
[33] = RPMI 5 mM glucose + 10% dialyzed FBS, 46.1 µM

Row | Structure (SMILES) | cell viability [1] | cell viability [2] | cell viability [3] | cell viability [4] | cell viability [5] | cell viability [6] | cell viability [7] | cell viability [8] | cell viability [9] | cell viability [10] | cell viability [11] | cell viability [12] | cell viability [13] | cell viability [14] | cell viability [15] | cell viability [16] | cell viability [17] | cell viability [18] | cell viability [19] | cell viability [20] | cell viability [21] | cell viability [22] | cell viability [23] | cell viability [24] | cell viability [25] | cell viability [26] | cell viability [27] | cell viability [28] | cell viability [29] | cell viability [30] | cell viability [31] | cell viability [32] | cell viability [33]
1 | O=C(Nc1ccncc1)C(=O)c1cn(Cc2ccc(Cl)cc2)c2ccccc12 | 103% | 101% | 111% | 96.6% | 70.5% | 35% | 18.4% | 21.8% | 40.1% | 35.2% | 46.5% | 104% | 98.6% | 107% | 96.5% | 62.8% | 34.8% | 16.5% | 24.3% | 34.1% | 39.2% | 44.1% | 90.9% | 94.2% | 97.2% | 98.2% | 79.1% | 46.5% | 20.8% | 23.1% | 34.6% | 36.2% | 46.6%
2 | Cc1ccc(Nc2nccc(N(C)c3ccc4c(C)n(C)nc4c3)n2)cc1[S+](N)(=O)[O-] | 105% | 102% | 105% | 110% | 108% | 114% | 113% | 111% | 104% | 91.9% | 20.8% | 106% | 115% | 109% | 109% | 113% | 116% | 113% | 111% | 120% | 78.4% | 23.7% | 99.7% | 101% | 104% | 102% | 102% | 99.9% | 110% | 107% | 108% | 83.3% | 27.8%
3 | O=C(Nc1cccc2c(=O)cc(-c3nnn[nH]3)oc12)c1ccc(OCCCCc2ccccc2)cc1 | 86.7% | 84.2% | 90.4% | 93.9% | 101% | 94.8% | 90% | 96% | 96.9% | 101% | 15.5% | 81% | 84.9% | 99.9% | 91.8% | 95.7% | 89.4% | 88.9% | 91% | 87.6% | 80% | 54.6% | 73.1% | 80.4% | 87% | 88.7% | 86.7% | 92.5% | 85.1% | 81.6% | 85.5% | 85.4% | 21.7%
4 | COc1cc([S+](C)(=O)[O-])ccc1Nc1nc2ccc(-c3ccc(NC(=O)[C@H](C)c4ccc(F)cc4)cc3)cn2n1 | 109% | 106% | 108% | 110% | 120% | 117% | 120% | 49% | 56.4% | 61.4% | 65% | 103% | 116% | 118% | 108% | 113% | 117% | 114% | 37.2% | 55.1% | 56.4% | 57.1% |  |  |  |  |  |  |  |  |  |  | 
5 | Oc1ccc(C2CNCCc3c2cc(O)c(O)c3Cl)cc1 (configuration not stated) | 92.6% | 92.3% | 86.9% | 97.7% | 92.7% | 98.5% | 92.4% | 95.7% | 96.1% | 100% | 99.4% | 87% | 98.4% | 95.8% | 96.8% | 86.5% | 98.8% | 90.3% | 98% | 96.1% | 103% | 101% | 90.3% | 93.3% | 80.2% | 86.9% | 84.7% | 96.9% | 86.1% | 88.5% | 94.1% | 90% | 92.7%
6 | CN(C)Cc1cccc(N/C(=C2\C(=O)Nc3cc(C(=O)N(C)C)ccc32)c2ccccc2)c1 | 95.7% | 105% | 110% | 101% | 119% | 114% | 111% | 115% | 103% | 93.2% | 42.3% | 90.7% | 114% | 108% | 109% | 114% | 111% | 113% | 106% | 96% | 90.3% | 65% | 100% | 111% | 111% | 117% | 120% | 111% | 114% | 118% | 103% | 98.2% | 64.4%
7 | Cc1nc(C(=O)NCC(=O)O)c(O)c2ccc(Oc3ccccc3)cc12 | 111% | 97.3% | 107% | 105% | 113% | 91.4% | 98.4% | 99.5% | 94.8% | 102% | 98.7% | 107% | 111% | 115% | 105% | 110% | 102% | 110% | 101% | 103% | 99.2% | 85.5% | 99.4% | 101% | 102% | 104% | 101% | 98.8% | 101% | 94.8% | 96.9% | 93.6% | 77%
8 | Cc1n[nH]c2ccc(-c3cncc(OC[C@@H](N)Cc4c[nH]c5ccccc45)c3)cc12 |  |  |  |  |  |  |  |  |  |  |  | 108% | 114% | 100% | 98.9% | 88.5% | 70.2% | 80.3% | 35.5% | 17.8% | 2.32% | 1.05% | 107% | 119% | 105% | 108% | 96.9% | 74.8% | 64% | 38.5% | 27.1% | 2.44% | 1.33%
